Experimental findings from patent US9321742B2, “N1-cyclic amine-N5-substituted biguanide derivatives, methods of preparing the same and pharmaceutical composition comprising the same” (IMMUNOMET THERAPEUTICS INC., priority 2011, dated 2016) are described below.

Data set [1] has as its system HCT116 cells. Put plainly: Measurement of effect of inhibiting cancer cell proliferation (MTT). The format is cell-based. The conditions noted are these: Homo sapiens; for inhibition at 100 µM: HCT-116, 100 uM, 48 hours, read-out: Cell Growth Inhibition (%) at 100 uM; for GI50: HCT-116, 48 hours.
For data set [2], the system named is AMPKα. Put plainly: Measurement of AMPK-activation effect (AMPKα Thr172 phosphorylation immunoassay in MCF7 cells). The class given is cell-based, human. The conditions noted are these: 24 hours; for AMPK activation effect 10 uM (%) / AMPK activation effect 50 uM (%): relative to untreated cells. Summed up:
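Human MCF7 breast cancer cells treated 24 h with compound at 5, 10 and 50 μM; metformin hydrochloride (0.05-10 mM) as control. AMPKα Thr172 phosphorylation measured in 20 μg lysate by immunoassay; AC150 (concentration giving 150% activation) calculated from concentration curves, with activation also given at 10 and 50 μM.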

For the compound `Cl.N=C(NCCc1ccccc1)NC(=N)N1CCCCCC1` [Example 59, N1-azepane-N5-(phenethyl)biguanide hydrochloride], the melting point (usually the temperature, or range, at which the solid turns liquid) fell in the range of 211 to 213 °C. Besides, in data set [1], the inhibition – broadly, how much of the control response was suppressed – at 100 µM was 56.6% and it took 21.9 µM to inhibit growth by half (GI50). In addition, in data set [2], the “AMPK activation effect 10 uM (%)” value stood at 194%, the “AMPK activation effect 50 uM (%)” value was 373% and the “AC150 (concentration at which AMPK activation reached 150%)” value came out at 0.7 µM.

The compound `Cl.N=C(NCCc1ccc(F)cc1)NC(=N)N1CCCCCC1` [Example 60, N1-azepane-N5-((4-fluoro)phenethyl)biguanide hydrochloride] showed a melting point of 211 to 212 °C. Further, in data set [1], the inhibition at 100 µM was determined as 73.7% and growth was halved (GI50) at 22.4 µM. Besides, in data set [2], the “AMPK activation effect 10 uM (%)” value came to 744%, the “AMPK activation effect 50 uM (%)” value was determined as 721% and the “AC150 (concentration at which AMPK activation reached 150%)” value came to 0.7 µM.

`Cl.N=C(NCCc1ccc(Cl)cc1)NC(=N)N1CCCCCC1` [Example 61, N1-azepane-N5-((4-chloro)phenethyl)biguanide hydrochloride] gave a melting point of 181 to 183 °C. In data set [1], the inhibition at 100 µM was found to be 94.3% and the concentration for 50% growth inhibition (GI50) (commonly the concentration at which growth is held to half of that of the control) turned out to be 19.8 µM. In addition, in data set [2], the “AMPK activation effect 10 uM (%)” value amounted to 1130% and the “AC150 (concentration at which AMPK activation reached 150%)” value was 0.5 µM.
